Source: the supplement of paper PMC4932681
Where a name gives a salt, the structure may show the parent alone.

What was measured:
Experiment in all cases: viability inhibition at highest dose (% inhibition); higher = more growth inhibition
BT-474 = conditions: 72 h
Method: (§1)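 Percent inhibition of viability (CellTiter-Glo, 72 h) at the highest tested concentration (D5), normalised to DMSO (0%) and 100 µM benzethonium chloride (100%). Resistant lines and the 'in 1µM tamoxifen' arms were tested in 1 µM 4-OH-tamoxifen.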

MCF-7 Tam1 = conditions: 4-OH-tamoxifen in medium 1 µM; 72 h
Method: as §1

T-47D Tam2 = conditions: 4-OH-tamoxifen in medium 1 µM; 72 h
Method: as §1

BT-474 Tam1 = conditions: 4-OH-tamoxifen in medium 1 µM; 72 h
Method: as §1

T-47D = conditions: 72 h
Method: as §1

T-47D Tam1 = conditions: 4-OH-tamoxifen in medium 1 µM; 72 h
Method: as §1

ZR-75-1 = conditions: 72 h
Method: as §1

ZR-75-1 Tam1 = conditions: 4-OH-tamoxifen in medium 1 µM; 72 h
Method: as §1

ZR-75-1 Tam2 = conditions: 4-OH-tamoxifen in medium 1 µM; 72 h
Method: as §1

BT-474 Tam2 = conditions: 4-OH-tamoxifen in medium 1 µM; 72 h
Method: as §1

MCF-7 = conditions: 72 h
Method: as §1

| Structure (SMILES) | viability inhibition at highest dose (BT-474; 4-OH-tamoxifen in medium 0 µM) | viability inhibition at highest dose (BT-474; 4-OH-tamoxifen in medium 1 µM) | viability inhibition at highest dose (MCF-7 Tam1) | viability inhibition at highest dose (T-47D Tam2) | viability inhibition at highest dose (BT-474 Tam1) | viability inhibition at highest dose (T-47D; 4-OH-tamoxifen in medium 0 µM) | viability inhibition at highest dose (T-47D; 4-OH-tamoxifen in medium 1 µM) | viability inhibition at highest dose (T-47D Tam1) | viability inhibition at highest dose (ZR-75-1; 4-OH-tamoxifen in medium 0 µM) | viability inhibition at highest dose (ZR-75-1; 4-OH-tamoxifen in medium 1 µM) | viability inhibition at highest dose (ZR-75-1 Tam1) | viability inhibition at highest dose (ZR-75-1 Tam2) | viability inhibition at highest dose (BT-474 Tam2) | viability inhibition at highest dose (MCF-7; 4-OH-tamoxifen in medium 0 µM) | viability inhibition at highest dose (MCF-7; 4-OH-tamoxifen in medium 1 µM) |
| --- | --- | --- | --- | --- | --- | --- | --- | --- | --- | --- | --- | --- | --- | --- | --- |
| CN(C)c1nc(N(C)C)nc(N(C)C)n1 [Altretamine] (drug 10000 nM) | -14.8 | -18.3 | -9.06 | 5.82 | 4.18 | -20.9 | 18.5 | 52.4 | -19.3 | -9.44 | 0.782 | -11.8 | 0.399 | -20.5 | 10.6 |
| C[C@]12C=CC(=O)C=C1CC[C@@H]1[C@@H]2[C@@H](O)C[C@@]2(C)[C@H]1CC[C@]2(O)C(=O)CO [Prednisolone] (drug 10000 nM) | -0.102 | -6.44 | 0.119 | 6.88 | -1.37 | -5.27 | -8.96 | 2 | -7.97 | 0.573 | -0.584 | 9.43 | -3.77 | 12 | 17.2 |
| COc1cc(Nc2c(C#N)cnc3cc(OCCCN4CCN(C)CC4)c(OC)cc23)c(Cl)cc1Cl [Bosutinib] (drug 10000 nM) | 83.1 | 95 | 50.7 | 77.5 | 96.4 | 41.6 | 66.7 | 72 | 17.9 | 28.8 | 22.6 | 57.5 | 95 | 81.6 | 78.4 |
| CC(=O)Nc1cccc(-n2c(=O)n(C3CC3)c(=O)c3c(Nc4ccc(I)cc4F)n(C)c(=O)c(C)c32)c1 (drug 250 nM) | -8.37 | 18.2 | 10.6 | 26.5 | 8.35 | -2.33 | 10.4 | 12.5 | -3.05 | 5.16 | 2.29 | 1.99 | -15.8 | 2.23 | 17.3 |
| COc1cc2nccc(Oc3ccc(NC(=O)Nc4cc(C)on4)c(Cl)c3)c2cc1OC [Tivozanib  (AV-951)] (drug 10000 nM) | 31.9 | 75.6 | 13.2 | 22.1 | 71.8 | 22.3 | 19.7 | 23.7 | 13.6 | 4.79 | 3.78 | 11.2 | 43.4 | 24.5 | 23.7 |
| COC1=CC(c2cc3ccccc3[nH]2)=N/C1=C\c1[nH]c(C)cc1C [Obatoclax (GX15-070)] (drug 10000 nM) | 68.9 | 18.9 | 51.1 | 36.8 | 36.3 | 47 | 44.1 | 67.3 | 32.5 | 31.2 | 23.7 | 50.8 | 86.7 | 45.6 | 75.8 |
| COc1cc(Nc2ncc3c(n2)-c2ccc(Cl)cc2C(c2c(F)cccc2OC)=NC3)ccc1C(=O)O [Alisertib (MLN8237)] (drug 10000 nM) | 11.6 | 34.7 | 16.2 | 41 | 13.6 | 27.3 | 28.5 | 38.9 | -2.57 | 9.24 | -1.42 | 4.01 | -5.31 | 17.2 | 7.64 |
| Cc1cc(C(C)Nc2ccccc2)c2nc(N3CCOCC3)cc(=O)n2c1 (stereo not given) [TGX-221] (drug 10000 nM) | 9.95 | 25.3 | 9.33 | 15.9 | 29 | 8.41 | 24.1 | 12.4 | 52 | 45.3 | 49 | 51.8 | 42.5 | 21.3 | 25.4 |
| CC(=O)OC[C@H]1O[C@@H]([S-])[C@H](OC(C)=O)[C@@H](OC(C)=O)[C@@H]1OC(C)=O.CCP(CC)CC.[Au+] [Auranofin] (drug 2500 nM) | 58 | 97.5 | 22.4 | 59.3 | 96 | 31 | 36 | 54.3 | 15.9 | 25.5 | 20.7 | 12.5 | 66.5 | 91.7 | 33.9 |
| CN[C@@H]1C[C@H]2O[C@@](C)([C@@H]1OC)n1c3ccccc3c3c4c(c5c6ccccc6n2c5c31)C(=O)N[C@H]4O [UCN-01] (drug 10000 nM) | 74.7 | 90.7 | 96 | 70.5 | 96 | 67.6 | 69.8 | 78 | 61.4 | 61.5 | 66.1 | 73.2 | 96.9 | 90.3 | 97.1 |
| O=C(Nc1ccncc1)C(=O)c1cn(Cc2ccc(Cl)cc2)c2ccccc12 [Indibulin] (drug 10000 nM) | 7.67 | 28.2 | -9.03 | 4.46 | 7.16 | 2.62 | 12 | 13 | 9.44 | -3.66 | 10.6 | 11.1 | 8.07 | 36.4 | 33.7 |
| C=CCn1c(=O)c2cnc(Nc3ccc(N4CCN(C)CC4)cc3)nc2n1-c1cccc(C(C)(C)O)n1 [MK-1775] (drug 10000 nM) | 25 | 44 | 6.3 | 38.8 | 40.9 | 22.4 | 16.9 | 39.6 | 21.9 | 14.6 | 1.62 | 1.58 | 30.6 | 51.7 | 35.9 |
| O=C(Nc1c[nH]nc1-c1nc2ccc(CN3CCOCC3)cc2[nH]1)NC1CC1 [AT9283] (drug 1000 nM) | -19.7 | -13.2 | -5.75 | 2.08 | 1.94 | -42.6 | -23.3 | -7.78 | -44.4 | -22.6 | -22.4 | -19.2 | 11.4 | -25.8 | -11 |
| CO[C@H](C(=O)[C@@H](O)[C@@H](C)O)[C@@H]1Cc2cc3cc(O[C@H]4C[C@@H](O[C@@H]5C[C@@H](O)[C@H](O)[C@@H](C)O5)[C@H](O)[C@@H](C)O4)c(C)c(O)c3c(O)c2C(=O)[C@H]1O[C@H]1C[C@@H](O[C@@H]2C[C@@H](O)[C@@H](O[C@@H]3C[C@](C)(O)[C@H](O)[C@@H](C)O3)[C@@H](C)O2)[C@H](O)[C@@H](C)O1 [Plicamycin  (Mithramycin A)] (drug 10000 nM) | 67.7 | 95 | 77.5 | 58.7 | 95.9 | 68.7 | 44.3 | 62 | 62.6 | 63.7 | 75.3 | 83.4 | 95.5 | 88.9 | 88.9 |
| Cc1cc(Nc2cc(CN3CCOCC3)c3nc(C)c(Cc4ccc(Cl)cc4F)n3n2)n[nH]1 (drug 10000 nM) | 5.76 | 66.4 | 47.8 | 46.2 | 96.7 | 21.2 | 24.4 | 45.6 | -23.2 | 0.926 | -2.02 | 16.8 | 96.4 | 66.7 | 68 |
| CC1=C2C[C@H]3[C@@H](CC=C4C[C@@H](O)CC[C@@]43C)[C@@H]2CC[C@]12O[C@@H]1C[C@H](C)CN[C@H]1[C@H]2C [Cyclopamine] (drug 10000 nM) | -4.32 | -7.93 | -8.03 | 1.98 | 0.632 | -17.5 | -14 | -2.15 | -9.96 | -4.21 | -2.07 | -6.35 | -2.39 | -20.5 | -1.78 |
| Cc1cc2c(F)c(Oc3ncnn4cc(OC[C@@H](C)O)c(C)c34)ccc2[nH]1 [Brivanib] (drug 1000 nM) | -13 | -17.5 | -13 | -3.24 | 6.47 | -14.5 | -3.49 | 2.73 | -7.74 | -7.64 | -6.33 | 3.72 | 7.57 | -12.6 | -7.3 |
| S=c1[nH]cnc2nc[nH]c12 [Mercaptopurine] (drug 10000 nM) | 3.7 | 13.8 | 11.9 | 12.1 | 3.48 | 3.17 | -0.759 | 11.9 | 39.5 | 6.71 | 35.5 | 18 | 6.87 | 18.1 | 27.8 |
| COc1cccc2cc(-c3nc([C@H]4CC[C@H](C(=O)O)CC4)n4ncnc(N)c34)[nH]c12 [OSI-027] (drug 10000 nM) | 35.5 | 47.5 | 30.1 | 38 | 38.1 | 62.6 | 42.7 | 55.6 | 60.5 | 52.9 | 52.6 | 65.5 | 35.6 | 44.4 | 43.9 |
| COc1cc(Nc2ncc(F)c(Nc3ccc4c(n3)N(COP(=O)(O)O)C(=O)C(C)(C)O4)n2)cc(OC)c1OC (drug 10000 nM) | -18 | 41.4 | 47.8 | 47.1 | 55.4 | 40.2 | 36.8 | 49.3 | 7.12 | 20.8 | 28.5 | 31.6 | 2.03 | 34.7 | 70.4 |
| Cn1c(CCCC(=O)O)nc2cc(N(CCCl)CCCl)ccc21 [Bendamustine (hydrochloride hydrate)] (drug 10000 nM) | -0.115 | -10.7 | -4.92 | -2.82 | -12.7 | -0.126 | -12.1 | 0.785 | -7.06 | -2.1 | -0.263 | 5.86 | -4.38 | 17.8 | -4.09 |
